A word on the EC50: it is the midpoint of the concentration-response curve. In general, melting point refers to the temperature, or range, at which the solid turns liquid.

In one data set the target is T1, human β3-AR (Homo sapiens, UniProt P13945).
T1 construct: Full-length β3-AR clones (402 amino acids) containing the last 6 amino acids of hβ3-AR; expressed in transfected cells; host or cells: CHO (Chinese hamster ovary) cells
Description: cAMP accumulation (SPA) in CHO cells transfected with human β3-AR. It counts as cell-based. The conditions noted are these: for IA(β3): maximal response of compound relative to maximal response of isoproterenol at 10^−5 M. The protocol: The ability of the compounds of this invention to treat or inhibit disorders related to insulin resistance or hyperglycemia was confirmed with representative compounds of this invention in the following standard pharmacological test procedures, which measured the binding selectivity of the β1-, β2-, and β3-AR. Binding to the receptors was measured in Chinese Hamster ovary (CHO) cells that were transfected with β1-, β2-, and β3-AR's. The following briefly summarizes the procedures used and results obtained.
Cloning of Human β3-AR Genomic DNA: cDNA was constructed by ligating four polymerase chain reaction (PCR) products using the following primers: an ATG-Narl fragment, sense primer 5′-[…]3′ and anti-sense primer 5′[…]3′; a Narl-Accl fragment, 5′[…]3′ as sense and 5′[…]3′ as anti-sense primer; an Accli—Styl fragment, sense primer 5′[…]3′ and anti-sense primer 5′[…]3′ and a Styl-TAG fragment, with sense primer 5′ […]3′ and anti-sense primer 5′ […]3′ . The corresponding primer sequences are described in Mantzoros, C. S., et.al., Diabetes, 1996, 45, 909-914. The four fragments are ligated into a pUC 18 plasmid (Gibco-BRL) and sequenced. Full-length β3-AR clones (402 amino acids) containing the last 6 amino acids of hβ3-AR are prepared with the β3-βARpcDNA3 from ATTC.
Binding Procedure: Clones expressing receptor levels of 70 to 110 fmoles/mg protein were used in the test procedures. CHO cells were grown in 24-well tissue culture plates in Dulbecco's Modified Eagle Media with 10% fetal bovine serum, MEM non-essential amino acids, Penicillin—Streptomycin and Geneticin. On the day of test procedure, growth medium was replaced with preincubation media (Dulbecco's Modified Eagle Media) and incubated for 30 minutes at 37° C. Pre-incubation medium was replaced with 0.2 ml treatment medium containing DMEM media containing 250 μM IBMX (isobutyl-1-methylxantine) plus 1 mM ascorbic acid with test compound dissolved in DMSO. Test compounds were assayed over a concentration range of 10^−9 M to 10^−5 M for β3-AR transfected cells and 10^−8 to 10^−4 M for β1-AR and β2-AR transfected cells. Isoproterenol (10^−5 M) was used as an internal standard for comparison of activity. Cells were incubated at 37° C. on a rocker for 30 min with the β3-AR transfected cells and 15 min with β1-AR and β2-AR transfected cells. Incubation was stopped by the addition of 0.2N HCl and the acid was neutralized with 2.5N NaOH. The plates, containing the cells and neutralized media, were stored at −20° C. until ready to test for cAMP using the SPA test kit (Amersham).
Data Analysis and Results: Data collected from the SPA test procedure were analyzed as percent of the maximal isoproterenol response at 10^−5 M. Activity curves were plotted using the SAS statistical and graphics software.

[1] abbreviates: CHO cells transfected with human β3-AR, cAMP by SPA, 30 min at 37° C., 10^−9 M to 10^−5 M, read-out: EC50(β3).
Setting [2] is: CHO cells transfected with human β3-AR.

Counter-ions that a name gives are not always drawn. Like-named read-outs stand apart in the source and are kept apart here.

T1 sequence (P13945 whole entry): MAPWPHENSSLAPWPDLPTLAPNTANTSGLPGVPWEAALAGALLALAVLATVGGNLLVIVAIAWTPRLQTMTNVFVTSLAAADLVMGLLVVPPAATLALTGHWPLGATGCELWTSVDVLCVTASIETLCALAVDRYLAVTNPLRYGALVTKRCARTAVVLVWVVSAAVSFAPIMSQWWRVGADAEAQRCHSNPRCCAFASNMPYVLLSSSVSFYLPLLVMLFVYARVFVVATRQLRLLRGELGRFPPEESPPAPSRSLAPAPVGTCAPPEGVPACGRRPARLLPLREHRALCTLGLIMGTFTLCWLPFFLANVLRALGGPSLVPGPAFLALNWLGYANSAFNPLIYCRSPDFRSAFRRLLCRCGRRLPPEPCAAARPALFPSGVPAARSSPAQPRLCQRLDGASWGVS

`CCCCCCCCNC1=NS(=O)(=O)N=C1Nc1ccc(CC(C)NC[C@H](O)COc2ccc3c(c2)OCO3)cc1` (stereo partly drawn) [Compound 35, (2S)-1-(1,3-Benzodioxol-5-yloxy)-3-{1-methyl-2-[4-(4-octylamino-1,1-dioxo-1H-1.lambda(6).-[1,2,5]thiadiazol-3-ylamino)-phenyl]-ethylamino}-propan-2-ol] registered a melting point of 81 to 86 °C. Further, the EC50 on human β3-AR (setting [1]) was 0.125 µM. Besides, on human β3-AR (setting [2]), the “IA(β3)” value is reported as 0.51.
Molecule `CCCCCCNC(=O)Nc1ccc(C2(CNC3=NS(=O)(=O)N=C3Nc3ccc(CC(C)(C)NC[C@H](O)COc4ccc(O)cc4)cc3)CCCC2)cc1` [Compound 8, 1-Hexyl-3-[4-(1-{[4-(4-{2-[(2S)-2-hydroxy-3-(4-hydroxy-phenoxy)-propylamino]-2-methyl-propyl}-phenylamino)-1,1-dioxo-1H-1.lambda(6).-{1,2,5]thiadiazol-3-ylamino]-methyl}-cyclopentyl)-phenyl]-urea] displayed a melting point of 154.5 to 158.5 °C. Moreover, at human β3-AR (setting [1]), the EC50 is 0.01 µM. Besides, the “IA(β3)” value on human β3-AR (setting [2]) is 0.91.
In the same order, the values of `CC(C)(Cc1ccc(NC2=NS(=O)(=O)N=C2NCC(c2ccccc2)c2ccccc2)cc1)NC[C@H](O)COc1ccc(OCc2ccccc2)cc1` [Compound 28] are 222.5 to 224.5 °C (dec.), 1.42 µM and 0.83.
In turn, `CCCCCCCCNC1=NS(=O)(=O)N=C1Nc1ccc(CC(C)(C)NC[C@H](O)COc2ccc(O)cc2)cc1` (as salt: HCl) [Compound 4] gave a melting point of 229.5 to 231.3 °C.
In the case of `CCCCCCCCNC1=NS(=O)(=O)N=C1Nc1cccc(CC(C)NCC(O)c2cccc(Cl)c2)c1` [Compound 2, (1R)-1-(3-Chloro-phenyl)-2-{1-methyl-2-[3-(4-octylamino-1,1-dioxo-1H-1-.lambda(6).-[1,2,5]thiadiazol-3-ylamino)-phenyl-]-ethylamino}-ethanol], the melting point lay within 90 to 96 °C. Besides, the EC50 on human β3-AR (setting [1]) amounted to 0.198 µM. In addition, the “IA(β3)” value on human β3-AR (setting [2]) was 0.42.
In the same order, the values of `CC(Cc1ccc(NC2=NS(=O)(=O)N=C2NCCc2ccc(F)cc2)cc1)NC[C@H](O)COc1ccc(O)cc1` (stereo partly drawn) [Compound 37] are 126 to 131 °C, 0.006 µM and 0.87.
`CCCCCCCCCCNC1=NS(=O)(=O)N=C1Nc1ccc(CC(C)NC[C@H](O)COc2ccc(O)cc2)cc1` (stereo partly drawn) (as salt: HCl) [Compound 25, 4-((2S)-3-{2-[4-(4-Decylamino-1,1-dioxo-1H-1(lambda(6))-[1,2,5]thiadiazol-3-ylamino)-phenyl]-1-methyl-ethylamino}-2-hydroxy-propoxy)-phenol] came in with a melting point of 146 to 155 °C.
`CCCCCCCCCCNc1c(Nc2ccc(CC(C)NC[C@H](O)COc3ccccc3)cc2)c(=O)c1=O` (stereo partly drawn) [Compound 23]: the melting point fell in the range of 144 to 155 °C. Moreover, the EC50 at human β3-AR (setting [1]) is 1.36 µM. Also, the “IA(β3)” value on human β3-AR (setting [2]) was 0.64.
Take `CC(Cc1ccc(NC2=NS(=O)(=O)N=C2NCC2(c3ccccc3)CCCC2)cc1)NC[C@H](O)COc1ccc(O)cc1` (stereo partly drawn) (as salt: HCl) [Compound 31, 4-{(2S)-3-[2-(4-{1,1-Dioxo-4-[(1-phenyl-cyclopentylmethyl)-amino]-1H-1(lambda(6))-[1,2,5]thiadiazol-3-ylamino}-phenyl)-1-methyl-ethylamino]-2-hydroxy-propoxy}-phenol]: the melting point is 162 to 165 °C.
Turning to `CCCCCCCCCCNC1=NS(=O)(=O)N=C1Nc1ccc(CC(C)NC[C@H](O)c2ccc(O)c(NS(C)(=O)=O)c2)cc1` (stereo partly drawn) [Compound 27, N-[5-((1R)-2-{2-[4-(4-Decylamino-1,1-dioxo-1H-1(lambda(6))-[1 2,5]thiadiazol-3-ylamino)-phenyl]-1-methyl-ethylamino}-1-hydroxy-ethyl)-2-hydroxy-phenyl]-methanesulfonamide], the melting point is 120 °C (dec.). Further, on human β3-AR (setting [1]), the concentration for a half-maximal effect (EC50) turned out to be 0.009 µM. The “IA(β3)” value on human β3-AR (setting [2]) is recorded as 1.27.
In the case of `CCCCCCCCNc1c(Nc2ccc(CC(C)NC[C@H](O)COc3ccccc3)cc2)c(=O)c1=O` (stereo partly drawn) [Compound 24, 3-{4-[2-((2S)-2-Hydroxy-3-phenoxy-propylamino)-propyl]-phenylamino}-4-octylamino-cyclobut-3-ene-1,2-dione], the melting point was in the range of 146 to 155 °C. In addition, the EC50 on human β3-AR (setting [1]) worked out at 0.081 µM. Also, the “IA(β3)” value on human β3-AR (setting [2]) amounted to 0.41.
`CCCCCCCCNC1=NS(=O)(=O)N=C1Nc1ccc(CC(C)NC[C@H](O)COc2cccc3[nH]c4ccccc4c23)cc1` (stereo partly drawn) [Compound 21, (2S)-1-(9H-Carbazol-4-yloxy)-3-{1-methyl-2-[4-(4-octylamino-1,1-dioxo-1H-1(lambda(6))-[1,2,5]thiadiazol-3-ylamino)-phenyl]-ethylamino}-propan-2-ol] registered a melting point of 121 to 124 °C. Further, the EC50 at human β3-AR (setting [1]) was determined as 0.064 µM. In addition, on human β3-AR (setting [2]), the “IA(β3)” value was 0.64.
In the same order, the values of `CCCCCCCCNC1=NS(=O)(=O)N=C1Nc1ccc(CC(C)NC[C@H](O)COc2ccc(O)cc2)cc1` (stereo partly drawn) [Compound 12, 4-((2S)-2-Hydroxy-3-{1-methyl-2-[4-(4-octylamino-1,1-dioxo-1H-1-.lambda(6).-[1,2,5]thiadiazol-3-ylamino)-phenyl]-1-ethylamino}-propoxy)-phenol] are 203.5 to 206 °C, 0.011 µM and 1.45.
For `CCCCCCCCNc1c(Nc2ccc(CC(C)NC[C@H](O)c3cccc(Cl)c3)cc2)c(=O)c1=O` (stereo partly drawn) [Compound 10, 3-(4-{2-[(2R)-2-(3-Chloro-phenyl)-2-hydroxy-ethylamino]-propyl}-phenylamino)-4-octylamino-cyclobut-3-ene-1 2-dione], in that order: 173 to 175 °C, 0.087 µM and 0.71.
In the case of `COc1ccc(CCNC2=NS(=O)(=O)N=C2Nc2ccc(CC(C)NC[C@H](O)COc3ccc(O)cc3)cc2)cc1` (stereo partly drawn) [Compound 36, (S)-4-{2-hydroxy-3-[2-(4-{4-[2-(4methoxy-phenyl)-ethylamino]-1 1-dioxo-1H-1.lambda(6).-[1,2,5]thiadiazol-3-ylamino}-phenyl)-1-methyl-ethylamino]-propoxy}-phenol], the melting point lay in the range of 95 to 100 °C. In addition, the EC50 on human β3-AR (setting [1]) is 0.005 µM. Besides, the “IA(β3)” value on human β3-AR (setting [2]) is 0.91.
As for `CCCCNc1c(Nc2ccc(CC(C)NC[C@H](O)c3cccc(Cl)c3)cc2)c(=O)c1=O` (stereo partly drawn) [Compound 1, 3-Butylamino-4-(4-{2-[(2R)-2-(3-chloro-phenyl)-2-hydroxy-ethylamino]-propyl}-phenylamino)-cyclobut-3-ene-1,2-dione], the melting point lay in the range of 176 to 179 °C. The EC50 on human β3-AR is 0.115 µM. The “IA(β3)” value at human β3-AR (setting [2]) is 0.16.
For `CCCCCCCCNC1=NS(=O)(=O)N=C1Nc1ccc(CCNC[C@H](O)COc2ccc(O)cc2)cc1` [Compound 5, 4-((2S)-2-Hydroxy-3-{2-[4-(4-octylamino-1,1-dioxo-1H-1.lambda(6).-[1,2,5]thiadiazol-3-ylamino)-phenyl]-ethylamino}-propoxy)-phenol], the melting point is 98 °C (dec.). Besides, the EC50 on human β3-AR (setting [1]) is 0.018 µM. On human β3-AR (setting [2]), the “IA(β3)” value is 0.75.
As for `CCCCCCCCNC1=NS(=O)(=O)N=C1Nc1ccc(CC(C)NC[C@H](O)c2ccc(OCc3ccccc3)c(NS(C)(=O)=O)c2)cc1` (stereo partly drawn) [6 (step B), N-[2-Benzyloxy-5-((1R)-1-hydroxy-2-{1-methyl-2-[4-(4-octylamino-1,1-dioxo-1H-1(lambda(6))-[1,2,5]thiadiazol-3-ylamino)-phenyl]-ethylamino}-ethyl)-phenyl]-methanesulfonamide], the “IA(β3)” value at human β3-AR (setting [2]) came to 0.32.
`CCCCCCCCNC1=NS(=O)(=O)N=C1Nc1ccc(CC(C)(C)NC[C@H](O)COc2ccc(OCc3ccccc3)cc2)cc1` [4 (step F)]: at human β3-AR (setting [1]), the EC50 amounted to 1.06 µM. Further, the “IA(β3)” value at human β3-AR (setting [2]) is recorded as 0.37.

Source of the values: patent US6395762B1, “Phenyl amino squarate and thiadiazole dioxide beta-3 adrenergic receptor agonists” (American Home Products Corporation, priority 2000, dated 2002).
